Test results as given in paper PMC8219695 (Nature Communications, 2021).
Several values for one entry are separate records, joined by “and”; a condition that tells them apart may be missing. Equal values may be shown once.

Columns and labels:
mKOR = target: T1, mKOR (Mus musculus, UniProt P33534); test: [125I]BNtxA radioligand competition binding, mouse KOR; settings: mean ± SEM, n = 3; [125I]BNtxA; read-out: Ki ± SEM mKOR
T1 construct: expressed in transfected cells; membranes

hMOR = target: T2, hMOR (Homo sapiens, UniProt P35372); test: CAMYEL BRET cAMP agonist assay at hMOR; assay type: cell-based; settings: for cAMP %: hMOR, single replicates, source data Fig 6c, listed as C11-Br-7OH (24)
T2 construct: expressed in transfected cells; plasmid a gift from Dr. Nevin Lambert

rKOR = target: T3, rKOR (Rattus norvegicus, UniProt P34975); test: CAMYEL BRET cAMP agonist assay at rKOR; assay type: cell-based; settings: individual replicates, Supplementary Figure 8B source data
T3 construct: expressed in transfected cells

mDOR = target: T4, mDOR (Mus musculus, UniProt P32300); test: CAMYEL BRET cAMP agonist assay at mDOR; assay type: cell-based; settings: for Agonist activity of 7OH analogs at mDOR: single replicate values, Supplementary Figure 7B
T4 construct: expressed in transfected cells

mMOR = target: T5, mMOR (Mus musculus, UniProt P42866); test: [125I]BNtxA radioligand competition binding, mouse MOR; settings: mean ± SEM, n = 3; [125I]BNtxA; read-out: Ki ± SEM mMOR
T5 construct: signal peptide (heterologous, not specified) (N); expressed in transfected cells; pcDNA3.1(+) construct made in house

hDOR = hDOR (Homo sapiens, UniProt P41143); test: CAMYEL BRET cAMP agonist assay at hDOR; assay type: cell-based; settings: single replicate values, Supplementary Figure 7A

SMILES: CC[C@@H]1CN2CC[C@@]3(O)C(=Nc4cc(Br)cc(OC)c43)[C@@H]2C[C@@H]1/C(=C\OC)C(=O)OC [11-Br-7OH (24), 11-Br-7OH]
- Ki (mKOR): 81.1 ± 7.1 nM
- EC50 (hMOR): 401 nM
- Emax (hMOR): 14%
- cAMP % (hMOR; Log[drug] (M) -5): 14.6374% and 26.5598% and 13.4593% and 12.3793% and 6.1202% and 3.5813% and 27.8092% and 3.652% and 6.737%
- cAMP % (hMOR; Log[drug] (M) -6): 18.6989% and 7.716% and 19.1803% and 0.2165% and 6.6608% and -0.2253% and 39.9126% and 18.2077% and 19.9668%
- cAMP % (hMOR; Log[drug] (M) -7): 12.0186% and 17.6725% and 14.4534% and 3.531% and 0.1326% and -1.3668% and -1.063% and 7.0578% and -1.6001%
- cAMP % (hMOR; Log[drug] (M) -8): 3.165% and 4.1647% and 7.3741% and 8.619% and 14.9301% and 11.6764% and -5.609% and -5.366% and 10.9759%
- cAMP % (hMOR; Log[drug] (M) -9): 2.317% and -1.298% and -1.019% and -2.259% and -7.165% and 10.2432% and 25.8292% and 21.9013% and 22.3959%
- cAMP % (hMOR; Log[drug] (M) -10): 4.34% and -1.394% and 4.504% and 1.432% and 0.8602% and -2.292% and 0.6443% and 11.4211% and 26.9944%
- cAMP % (hMOR; Log[drug] (M) -11): 6.752% and 9.529% and 9.016% and 11.4512% and -5.469% and 12.8282% and 13.3991% and 6.363% and 12.7423%
- cAMP % (hMOR; Log[drug] (M) -13, cAMP inhibition as % of DAMGO): 4.239% and 4.052% and 15.2175% and 4.859% and 6.721% and 16.8511% and 4.407% and 8.458% and 8.078%
- Agonist activity of 7OH analogs at rKOR (rKOR; Log [drug](M) -5): 25.6296 and -9.743 and 0.6611 and 8.628 and -4.988 and 6.198 and 4.323 and 3.4884 and 6.258
- Agonist activity of 7OH analogs at rKOR (rKOR; Log [drug](M) -6): 5.472 and -3.314 and -2.157 and 12.7013 and 24.7501 and 18.1661 and 1.856 and -1.539 and -0.3161
- Agonist activity of 7OH analogs at rKOR (rKOR; Log [drug](M) -7): 4.7985 and -15.0915 and 10.4804 and 13.2829 and 19.8014 and 0.6752 and 3.169 and 0.0803 and -0.9699
- Agonist activity of 7OH analogs at rKOR (rKOR; Log [drug](M) -8): 15.8006 and 9.743 and 5.004 and 1.565 and 3.381 and -4.9468 and 4.551 and 0.2655 and 16.2208
- Agonist activity of 7OH analogs at rKOR (rKOR; Log [drug](M) -9): 2.391 and 0.4693 and -2.7298 and 8.844 and 10.6443 and -8.128 and 0.4192 and -1.635 and 9.514
- Agonist activity of 7OH analogs at rKOR (rKOR; Log [drug](M) -10): -3.09 and -6.057 and 13.4494 and 16.7517 and 7.424 and 2.462 and 3.397 and 1.924 and 5.164
- Agonist activity of 7OH analogs at rKOR (rKOR; Log [drug](M) -11): -9.158 and 9.8247 and 5.5119 and -1.702 and 25.9779 and 16.6823 and 6.047 and 6.143 and 5.108
- Agonist activity of 7OH analogs at rKOR (rKOR; Log [drug](M) -13): -5.115 and 8.484 and 8.583 and 29.3433 and 7.52 and 9.7517 and 3.9044 and 5.761 and 8.186
- Agonist activity of 7OH analogs at mDOR (mDOR; Log[drug] (M) -5): 13.8013 and 18.9976 and 33.2307 and 22.3286 and 13.395 and 16.9068 and 13.8361 and 11.2191 and 18.2655
- Agonist activity of 7OH analogs at mDOR (mDOR; Log[drug] (M) -6): 28.5316 and 7.81 and 20.2665 and 20.4093 and 17.1261 and 17.3487 and 14.4976 and 7.195 and 12.5927
- Agonist activity of 7OH analogs at mDOR (mDOR; Log[drug] (M) -7): 11.1893 and 13.4547 and 27.5656 and 14.54 and 12.7942 and 5.698 and 4.253 and 2.065 and 7.661
- Agonist activity of 7OH analogs at mDOR (mDOR; Log[drug] (M) -8): 10.5957 and 18.0747 and 9.651 and 4.935 and -3.078 and 4.75 and 6.109 and 1.285 and 9.808
- Agonist activity of 7OH analogs at mDOR (mDOR; Log[drug] (M) -9): 17.3278 and 15.5005 and 47.145 and -2.094 and 7.434 and -5.339 and 5.642 and -1.53 and 3.1
- Agonist activity of 7OH analogs at mDOR (mDOR; Log[drug] (M) -10): 8.93 and 5.939 and 6.52 and 4.461 and 5.129 and -1.733 and 2.478 and 3.975 and -1.971
- Agonist activity of 7OH analogs at mDOR (mDOR; Log[drug] (M) -11): 10.869 and 6.17 and -5.4274 and 13.8383 and 9.771 and 11.6667 and 2.792 and -1.117 and -1.6751
- Agonist activity of 7OH analogs at mDOR (mDOR; Log[drug] (M) -13): -4.49 and 2.526 and 1.964 and 13.4101 and 7.388 and 17.2326 and -5.081 and 4.508 and 13.385
- Emax (mDOR; mDOR cAMP BRET, positive control DPDPE): very low efficacy
- Ki (mMOR): 32.4 ± 1.4 nM
- Agonist activity of 7OH analogs at hDOR (hDOR; Log[drug] (M) -5): 4.7 and 25.3039 and 6.573 and 24.0158 and 10.0458 and 10.1909 and 12.9945 and 10.3075
- Agonist activity of 7OH analogs at hDOR (hDOR; Log[drug] (M) -6): 13.1842 and 10.2252 and 8.595 and 5.73 and 12.7267 and 14.3479 and 6.336 and 13.8749
- Agonist activity of 7OH analogs at hDOR (hDOR; Log[drug] (M) -7): 14.5317 and -1.155 and 1.334 and 28.0039 and 13.2568 and 5.897 and 5.1203 and 15.4297
